# Test results: ChEMBL document CHEMBL3102853, “Carbonic anhydrase inhibitors. Synthesis, and molecular structure of novel series N-substituted N'-(2-arylmethylthio-4-chloro-5-methylbenzenesulfonyl)guanidines and their inhibition of human cytosolic isozymes I and II and the transmembrane tumor-associated isozymes IX and XII” (Eur J Med Chem, 2014)
# Activity calls are given as the source filed them. The calls are words filed in the database; no cut-off is given here.
# Assays:
# [1] = molecular target: Carbonic anhydrase 9 (Homo sapiens, UniProt Q16790)
# [2] = system: NCI-H460; assay: Cytotoxicity against human NCI-H460 cells at 10 uM; type: functional; details: read-out: GI
# [3] = system: HT-29; assay: Cytotoxicity against human HT-29 cells at 10 uM; type: functional
# [4] = system: KM12; assay: Cytotoxicity against human KM12 cells at 10 uM; type: functional
# [5] = system: SNB-75; assay: Cytotoxicity against human SNB75 cells at 10 uM; type: functional; details: read-out: GI
# [6] = system: SF-268; assay: Cytotoxicity against human SF268 cells at 10 uM; type: functional; details: read-out: GI
# [7] = system: SW-620; assay: Cytotoxicity against human SW620 cells at 10 uM; type: functional; details: read-out: GI
# [8] = system: PC-3; assay: Cytotoxicity against human PC3 cells at 10 uM; type: functional
# [9] = system: DU-145; assay: Cytotoxicity against human DU145 cells at 10 uM; type: functional
# [10] = system: OVCAR-3; assay: Cytotoxicity against human OVCAR3 cells at 10 uM; type: functional
# [11] = system: A498; assay: Cytotoxicity against human A498 cells at 10 uM; type: functional; details: read-out: GI
# [12] = system: T47D; assay: Cytotoxicity against human T47D cells at 10 uM; type: functional; details: read-out: GI
# [13] = system: SK-MEL-2; assay: Cytotoxicity against human SK-MEL-2 cells at 10 uM; type: functional
# [14] = Cytotoxicity against human Hs 578T cells at 10 uM; type: functional; details: read-out: GI
# [15] = system: MCF7; assay: Cytotoxicity against human MCF7 cells at 10 uM; type: functional
# [16] = system: A549; assay: Cytotoxicity against human A549 cells at 10 uM; type: functional
# [17] = system: NCI/ADR-RES; assay: Cytotoxicity against human NCI-ADR-RES cells at 10 uM; type: functional
# [18] = system: HOP-92; assay: Cytotoxicity against human HOP92 cells at 10 uM; type: functional; details: read-out: GI
# [19] = system: UACC-62; assay: Cytotoxicity against human UACC62 cells at 10 uM; type: functional; details: read-out: GI
# [20] = system: LOX IMVI; assay: Cytotoxicity against human LOXIMVI cells at 10 uM; type: functional; details: read-out: GI
smiles,measurement,setting,value
Cc1cc(S(=O)(=O)NC(=N)Nc2ccccc2S(N)(=O)=O)c(SCc2cccc3ccccc23)cc1Cl,Ki,[1],138 nM
Cc1cc(S(=O)(=O)NC(=N)Nc2nnc(S(N)(=O)=O)s2)c(SCc2ccc(C(F)(F)F)cc2)cc1Cl,Ki,[1],10.3 nM
Cc1cc(S(=O)(=O)NC(=N)NCc2ccc(S(N)(=O)=O)cc2)c(SCc2cccc(C(F)(F)F)c2)cc1Cl,Ki,[1],17 nM
Cc1cc(S(=O)(=O)NC(=N)Nc2nnc(S(N)(=O)=O)s2)c(SCc2cccc3ccccc23)cc1Cl,inhibition of growth at 10 µM,[2],3%
same,growth inhibition (GI),[3],inactive
same,growth inhibition (GI),[4],inactive
same,inhibition of growth at 10 µM,[5],11%
same,inhibition of growth at 10 µM,[6],4%
same,inhibition of growth at 10 µM,[7],8%
same,growth inhibition (GI),[8],inactive
same,growth inhibition (GI),[9],inactive
same,growth inhibition (GI),[10],inactive
same,Ki,[1],9.4 nM
same,inhibition of growth at 10 µM,[11],48%
same,inhibition of growth at 10 µM,[12],17%
same,growth inhibition (GI),[13],inactive
same,inhibition of growth at 10 µM,[14],15%
same,growth inhibition (GI),[15],inactive
same,growth inhibition (GI),[16],inactive
same,growth inhibition (GI),[17],inactive
same,inhibition of growth at 10 µM,[18],3%
same,inhibition of growth at 10 µM,[19],2%
same,inhibition of growth at 10 µM,[20],2%
